Data from patent publication US20250332173A1, “COMPOUNDS AND METHODS FOR MODULATING NUCLEIC ACID SPLICING” (REMIX THERAPEUTICS INC., priority 2021, published 2025).

Tests used:
Type in all cases: cell-based, human
HTT = assay: HiBiT protein abundance assay, HTT HiBiT K562 cell line; conditions: HiBiT K562 cell line, 24 hours, top dose 10 μM; read-out: Effect on protein abundance, HTT (IC50 category)
Method in brief: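 Tagged-protein abundance measured by split-NanoBiT luminescence after lysis, following 24 h compound exposure (37° C; 10 μM top, 3-fold, 10 points; DMSO ≤0.25%) of HiBiT knock-in K562 cells. Percent response vs DMSO and unmodified-cell controls; 4-parameter logistic interpolation at 50% gave IC50.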

Target C [1] = assay: RT-qPCR splicing assay panel, Target C canonical junction (CJ) mRNA; conditions: Homo sapiens; Table 5 panel; canonical junction qPCR; compound concentration having 50% response in CJ decrease; read-out: Target C IC50 (decrease in CJ mRNA levels)
Method in brief: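 Canonical-junction transcript levels in compound-treated A673 or K562 cells (24 h, up to 10 uM final) were determined from lysates by RT-qPCR with housekeeping-gene normalization.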

Target C [2] = assay: HiBiT protein abundance assay, Target C (Promega Nano-Glo HiBiT Lytic Detection System, knock-in K562 cell line); conditions: Homo sapiens, K562, 24 h, HiBiT K562 cell line, 24 hours, top dose 10 μM; read-out: Effect on protein abundance, Target C (IC50 category)
Method in brief: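 Protein abundance was read by Nano-Glo HiBiT lytic luminescence after 24 h compound exposure (10-point, threefold series from 10 μM final) of HiBiT knock-in K562 cells. Parental K562 served as baseline; the 50%-abundance concentration was interpolated from a four-parameter logistic fit.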

CCN1CCC(n2ccc3cc(-c4cc(C)c5nc(C)cn5n4)ccc3c2=O)CC1 [Compound 402, 6-{2,8-dimethylimidazo[1,2-b]pyridazin-6-yl}-2-(1-ethylpiperidin-4-yl)isoquinolin-1-one]
IC50 (HTT): < 0.1 µM | IC50 (Target C [1]): 0.1 to 1 µM | IC50 (Target C [2]): 0.1 to 1 µM

Cc1cn2cc(-c3cc(F)c4c(=O)n([C@H]5CCNC5)ccc4c3)cc(F)c2n1 (single isomer, unassigned) [Compound 396]
IC50 (HTT): 0.1 to 1 µM | IC50 (Target C [1]): > 10 µM | IC50 (Target C [2]): 0.1 to 1 µM

Cn1cc2c(n1)CCN(c1ccc3c(=O)n(C4CCNCC4)ccc3c1)C2 [Compound 509, 6-{2-methyl-4H,6H,7H-pyrazolo[4,3-c]pyridin-5-yl}-2-(piperidin-4-yl)isoquinolin-1-one]
IC50 (HTT): > 10 µM | IC50 (Target C [1]): > 10 µM | IC50 (Target C [2]): > 10 µM

Cc1c(O)c(-c2cc(F)c3c(=O)n(C4CCNC5(CC5)C4)ccc3c2)cc2cn(C)nc12 (stereo not drawn) [Compound 419, 2-{4-azaspiro[2.5]octan-7-yl}-8-fluoro-6-(6-hydroxy-2,7-dimethylindazol-5-yl)isoquinolin-1-one]
IC50 (HTT): > 10 µM | IC50 (Target C [1]): > 10 µM | IC50 (Target C [2]): > 10 µM

Cc1cn2cc(-c3cc(F)c4c(=O)n(C5CCNCC5)ccc4c3)cc(F)c2n1 [Compound 370]
IC50 (HTT): < 0.1 µM | IC50 (Target C [1]): 0.1 to 1 µM | IC50 (Target C [2]): < 0.1 µM

Cc1cc(-c2ccc3c(=O)n([C@@H]4CCNC[C@H]4F)ncc3c2)cc2cn(C)nc12 [Compound 378]
IC50 (HTT): 1 to 10 µM | IC50 (Target C [1]): 1 to 10 µM | IC50 (Target C [2]): 1 to 10 µM

Cc1cn2nc(-c3cc(F)c4c(=O)n(C5CCNC5)ccc4c3)cc(C)c2n1 (stereo in doubt) [Compound 382, (R)-6-(2,8-dimethylimidazo[1,2-b]pyridazin-6-yl)-8-fluoro-2-(pyrrolidin-3-yl)isoquinolin-1(2H)-one]
IC50 (HTT): 1 to 10 µM | IC50 (Target C [1]): > 10 µM | IC50 (Target C [2]): 1 to 10 µM

Cc1cn2cc(-n3ccc4cc(N5C[C@@H](C)N[C@@H](C)C5)ccc4c3=O)nc(C)c2n1 [Compound 454, 2-{2,8-dimethylimidazo[1,2-a]pyrazin-6-yl}-6-[(3R,5S)-3,5-dimethylpiperazin-1-yl]isoquinolin-1-one]
IC50 (HTT): > 10 µM | IC50 (Target C [1]): > 10 µM | IC50 (Target C [2]): > 10 µM

Cc1cn2cc(-c3cc(F)c4c(=O)n(C5CCNCC5)cc(C)c4c3)cc(F)c2n1 [Compound 461, 8-fluoro-6-{8-fluoro-2-methylimidazo[1,2-a]pyridin-6-yl}-4-methyl-2-(piperidin-4-yl)isoquinolin-1-one]
IC50 (HTT): < 0.1 µM | IC50 (Target C [1]): 0.1 to 1 µM | IC50 (Target C [2]): 0.1 to 1 µM

Cc1cn2cc(-c3cc(F)c4c(=O)n([C@@H]5CCNC5)ccc4c3)cc(F)c2n1 (single isomer, unassigned) [Compound 395]
IC50 (HTT): 0.1 to 1 µM | IC50 (Target C [1]): > 10 µM | IC50 (Target C [2]): 1 to 10 µM

Cc1cn2cc(-c3cc(F)c4c(=O)n(C5CCNC5)ccc4c3)cc(C#N)c2n1 (stereo not drawn) [Compound 434, 6-[8-fluoro-1-oxo-2-(pyrrolidin-3-yl)isoquinolin-6-yl]-2-methylimidazo[1,2-a]pyridine-8-carbonitrile]
IC50 (HTT): > 10 µM | IC50 (Target C [1]): > 10 µM | IC50 (Target C [2]): > 10 µM

Cc1cn2nc(-c3cc4ccn(C5CCNCC5)c(=O)c4cc3O)cc(C)c2n1 [Compound 448, 6-{2,8-dimethylimidazo[1,2-b]pyridazin-6-yl}-7-hydroxy-2-(piperidin-4-yl)isoquinolin-1-one]
IC50 (HTT): < 0.1 µM | IC50 (Target C [1]): < 0.1 µM | IC50 (Target C [2]): < 0.1 µM

Cc1nc2c(F)cc(-c3cc(F)c4c(=O)n(C5CCNC6(CC6)C5)ccc4c3)cc2n1C (stereo not drawn) [Compound 430, 8-fluoro-6-(4-fluoro-1,2-dimethyl-1H-benzo[d]imidazol-6-yl)-2-(4-azaspiro[2.5]octan-7-yl)isoquinolin-1(2H)-one]
IC50 (HTT): > 10 µM | IC50 (Target C [1]): > 10 µM | IC50 (Target C [2]): > 10 µM

Cc1cc(-c2cc(F)c3c(=O)n(C4CCNC5(CC5)C4)ccc3c2)cc2c1nc(C)n2C (stereo not drawn) [Compound 429]
IC50 (HTT): > 10 µM | IC50 (Target C [1]): > 10 µM | IC50 (Target C [2]): 0.1 to 1 µM

Cc1cn2nc(-c3ccc4c(=O)n(C5CCCNC5)ccc4c3)cc(C)c2n1 (stereo in doubt) [Compound 411, 6-{2,8-dimethylimidazo[1,2-b]pyridazin-6-yl}-2-[(3R)-piperidin-3-yl]isoquinolin-1-one]
IC50 (HTT): 1 to 10 µM | IC50 (Target C [1]): > 10 µM | IC50 (Target C [2]): 1 to 10 µM

Cc1cn2nc(-c3cc(F)c4c(=O)n([C@H]5CCNC6(CC6)C5)ncc4c3)cc(C)c2n1 [Compound 447]
IC50 (HTT): < 0.1 µM | IC50 (Target C [1]): < 0.1 µM | IC50 (Target C [2]): < 0.1 µM

Cn1cc2c(n1)CCN(c1cc(F)c3c(=O)n(C4CCNCC4)cnc3c1)C2 [Compound 365, 5-fluoro-7-(2-methyl-2,4,6,7-tetrahydro-5H-pyrazolo[4,3-c]pyridin-5-yl)-3-(piperidin-4-yl)quinazolin-4(3H)-one]
IC50 (HTT): > 10 µM | IC50 (Target C [1]): > 10 µM | IC50 (Target C [2]): > 10 µM

Cn1cc2cc(-c3cc(F)c4c(=O)n(C5CCNC6(CC6)C5)ccc4c3)c(O)c(F)c2n1 (stereo not drawn) [Compound 420, 2-{4-azaspiro[2.5]octan-7-yl}-8-fluoro-6-(7-fluoro-6-hydroxy-2-methylindazol-5-yl)isoquinolin-1-one]
IC50 (HTT): 1 to 10 µM | IC50 (Target C [1]): 1 to 10 µM | IC50 (Target C [2]): 1 to 10 µM

COc1cc2c(=O)n(C3CCNCC3)ccc2cc1-c1cc(C)c2nc(C)cn2n1 [Compound 449, 6-{2,8-dimethylimidazo[1,2-b]pyridazin-6-yl}-7-methoxy-2-(piperidin-4-yl)isoquinolin-1-one]
IC50 (HTT): > 10 µM | IC50 (Target C [1]): > 10 µM | IC50 (Target C [2]): > 10 µM

Cn1cc2cc(-n3cnc4cc(C5CCNCC5)ccc4c3=O)ccc2n1 [Compound 172]
IC50 (HTT): > 10 µM | IC50 (Target C [1]): > 10 µM | IC50 (Target C [2]): > 10 µM

Cc1cn2cc(-c3ccc4c(=O)n(C5CCNC5)cc(C)c4c3)cc(C#N)c2n1 (stereo not drawn) [Compound 442, 2-methyl-6-[4-methyl-1-oxo-2-(pyrrolidin-3-yl)isoquinolin-6-yl]imidazo[1,2-a]pyridine-8-carbonitrile]
IC50 (HTT): > 10 µM | IC50 (Target C [1]): > 10 µM | IC50 (Target C [2]): > 10 µM

Cc1nc2c(C)cc(-c3cc(F)c4c(=O)n(C5CCNC6(CC6)C5)ccc4c3)cc2o1 (stereo not drawn) [Compound 418, 2-{4-azaspiro[2.5]octan-7-yl}-6-(2,4-dimethyl-1,3-benzoxazol-6-yl)-8-fluoroisoquinolin-1-one]
IC50 (HTT): < 0.1 µM | IC50 (Target C [1]): 0.1 to 1 µM | IC50 (Target C [2]): < 0.1 µM

Cc1cn2cc(-c3ccc4c(=O)n([C@H]5CCNC5)cc(C)c4c3)cc(C#N)c2n1 [Compound 456, (S)-2-methyl-6-(4-methyl-1-oxo-2-(pyrrolidin-3-yl)-1,2-dihydroisoquinolin-6-yl)imidazo[1,2-a]pyridine-8-carbonitrile]
IC50 (HTT): > 10 µM | IC50 (Target C [1]): > 10 µM | IC50 (Target C [2]): > 10 µM

Cc1cn2cc(-c3cc(F)c4c(=O)n(C5CCNC6(CC6)C5)ccc4c3)cc(C)c2n1 (stereo not drawn) [Compound 416, 2-{4-azaspiro[2.5]octan-7-yl}-6-{2,8-dimethylimidazo[1,2-a]pyridin-6-yl}-8-fluoroisoquinolin-1-one]
IC50 (HTT): < 0.1 µM | IC50 (Target C [1]): 0.1 to 1 µM | IC50 (Target C [2]): < 0.1 µM

Cc1cn2cc(-c3cc(F)c4c(=O)n(C5CCOC5)cnc4c3)cc(C#N)c2n1 (stereo not drawn) [Compound 366, 6-[5-fluoro-4-oxo-3-(oxolan-3-yl)quinazolin-7-yl]-2-methylimidazo[1,2-a]pyridine-8-carbonitrile]
IC50 (HTT): 1 to 10 µM | IC50 (Target C [1]): 1 to 10 µM | IC50 (Target C [2]): 1 to 10 µM
